Article PMC11822212, “High-throughput screening identifies Aurora kinase B as a critical therapeutic target for Merkel cell carcinoma” (Nature Communications, 2025)
Values joined by “and” are separate entries in the source; they are usually repeats but may differ in a detail not shown here. Identical values can stand only once. Like-named read-outs stand apart in the source and are kept apart here.

Key:
Test in all cases: qHTS cell viability (CellTiter-Glo, 72 h; primary and follow-up small molecule screen)
Type in all cases: cell-based, human
[1] = tested on: MCC13 cells (VN-MCC)
[2] = tested on: MCC26 cells (VN-MCC)
[3] = tested on: UISO cells (VN-MCC)
[4] = tested on: WAGA cells (VP-MCC)
[5] = tested on: MKL-1 cells (VP-MCC)
[6] = tested on: MKL-2 cells (VP-MCC)
[7] = follow-up screen, MCC13, replicate 1
[8] = follow-up screen, MCC13, replicate 2
[9] = follow-up screen, MCC13, replicate 3
[10] = follow-up screen, MCC26, replicate 1
[11] = follow-up screen, MCC26, replicate 2
[12] = follow-up screen, MCC26, replicate 3
[13] = follow-up screen, UISO, replicate 1
[14] = follow-up screen, UISO, replicate 2
[15] = follow-up screen, UISO, replicate 3
[16] = follow-up screen, WAGA, replicate 1
[17] = follow-up screen, WAGA, replicate 2
[18] = follow-up screen, WAGA, replicate 3
[19] = follow-up screen, MKL-1, replicate 1
[20] = follow-up screen, MKL-1, replicate 2
[21] = follow-up screen, MKL-1, replicate 3
[22] = follow-up screen, MKL-2, replicate 1
[23] = follow-up screen, MKL-2, replicate 2
[24] = follow-up screen, MKL-2, replicate 3

SMILES	Area under the dose-response curve (AUC) MCC13 Replicate 1 [1]	Area under the dose-response curve (AUC) MCC13 Replicate 2 [1]	Area under the dose-response curve (AUC) MCC13 Replicate 3 [1]	Area under the dose-response curve (AUC) MCC26 Replicate 1 [2]	Area under the dose-response curve (AUC) MCC26 Replicate 2 [2]	Area under the dose-response curve (AUC) MCC26 Replicate 3 [2]	Area under the dose-response curve (AUC) UISO Replicate 1 [3]	Area under the dose-response curve (AUC) UISO Replicate 2 [3]	Area under the dose-response curve (AUC) UISO Replicate 3 [3]	Area under the dose-response curve (AUC) WAGA Replicate 1 [4]	Area under the dose-response curve (AUC) WAGA Replicate 2 [4]	Area under the dose-response curve (AUC) WAGA Replicate 3 [4]	Area under the dose-response curve (AUC) MKL-1 Replicate 1 [5]	Area under the dose-response curve (AUC) MKL-1 Replicate 2 [5]	Area under the dose-response curve (AUC) MKL-1 Replicate 3 [5]	Area under the dose-response curve (AUC) MKL-2 Replicate 1 [6]	Area under the dose-response curve (AUC) MKL-2 Replicate 2 [6]	Area under the dose-response curve (AUC) MKL-2 Replicate 3 [6]	Area under the dose-response curve (AUC) MCC13 Replicate 1 [1, 7]	Area under the dose-response curve (AUC) MCC13 Replicate 2 [1, 8]	further results
O.O=c1c2ccc(O)c(O)c2oc2c(O)c(O)ccc12 [3,4,5,6-Tetrahydroxyxanthone hydrate]																					Area under the dose-response curve (AUC) [1]: 500.0 and 470.6 and 462.5; Area under the dose-response curve (AUC) [2]: 448.2 and 449.4 and 459.1; Area under the dose-response curve (AUC) [3]: 455.2 and 451.1 and 430.7; Area under the dose-response curve (AUC) [4]: 510.8 and 453.0 and 432.4; Area under the dose-response curve (AUC) [5]: 474.6 and 473.6 and 453.4; Area under the dose-response curve (AUC) [6]: 454.0 and 468.2 and 444.8
CC[C@@]1(O)C(=O)OCc2c1cc1n(c2=O)Cc2cc3cc(O)ccc3nc2-1 [10-hydroxycamptothecin]	287.3	291.9	277.2	260.5	244.0	250.0	187.9	199.3	183.4	195.8	197.2	184.4	214.0	217.0	223.0	184.7	164.5	246.0			
Nc1ncnc2c1ncn2[C@@H]1O[C@H](CO)[C@@H](O)[C@H]1O [Adenosine]																			550.6	498.0	Area under the dose-response curve (AUC) MCC13 Replicate 3 [1, 9]: 487.2; Area under the dose-response curve (AUC) MCC26 Replicate 1 [2, 10]: 484.4; Area under the dose-response curve (AUC) MCC26 Replicate 2 [2, 11]: 450.7; Area under the dose-response curve (AUC) MCC26 Replicate 3 [2, 12]: 501.0; Area under the dose-response curve (AUC) UISO Replicate 1 [3, 13]: 514.9; Area under the dose-response curve (AUC) UISO Replicate 2 [3, 14]: 502.8; Area under the dose-response curve (AUC) UISO Replicate 3 [3, 15]: 486.4; Area under the dose-response curve (AUC) WAGA Replicate 1 [4, 16]: 557.9; Area under the dose-response curve (AUC) WAGA Replicate 2 [4, 17]: 476.1; Area under the dose-response curve (AUC) WAGA Replicate 3 [4, 18]: 490.2; Area under the dose-response curve (AUC) MKL-1 Replicate 1 [5, 19]: 523.5; Area under the dose-response curve (AUC) MKL-1 Replicate 2 [5, 20]: 521.0; Area under the dose-response curve (AUC) MKL-1 Replicate 3 [5, 21]: 519.8; Area under the dose-response curve (AUC) MKL-2 Replicate 1 [6, 22]: 483.1; Area under the dose-response curve (AUC) MKL-2 Replicate 2 [6, 23]: 500.4; Area under the dose-response curve (AUC) MKL-2 Replicate 3 [6, 24]: 489.0
CCC(=O)CCCCC[C@@H]1NC(=O)[C@H]2CCCCN2C(=O)[C@H]([C@@H](C)CC)NC(=O)[C@H](Cc2cn(OC)c3ccccc23)NC1=O [Apicidin]	352.8	341.2	320.0	312.3	327.5	296.4	287.8	286.2	272.4	264.4	253.3	235.6	315.8	299.2	285.0	250.3	267.1	303.9			
COc1ccc(C(=O)CC(=O)c2ccc(C(C)(C)C)cc2)cc1 [Avobenzone]																			464.5	464.7	Area under the dose-response curve (AUC) MCC13 Replicate 3 [1, 9]: 487.0; Area under the dose-response curve (AUC) MCC26 Replicate 1 [2, 10]: 418.2; Area under the dose-response curve (AUC) MCC26 Replicate 2 [2, 11]: 424.5; Area under the dose-response curve (AUC) MCC26 Replicate 3 [2, 12]: 411.6; Area under the dose-response curve (AUC) UISO Replicate 1 [3, 13]: 448.1; Area under the dose-response curve (AUC) UISO Replicate 2 [3, 14]: 466.1; Area under the dose-response curve (AUC) UISO Replicate 3 [3, 15]: 426.5; Area under the dose-response curve (AUC) WAGA Replicate 1 [4, 16]: 495.5; Area under the dose-response curve (AUC) WAGA Replicate 2 [4, 17]: 492.2; Area under the dose-response curve (AUC) WAGA Replicate 3 [4, 18]: 489.4; Area under the dose-response curve (AUC) MKL-1 Replicate 1 [5, 19]: 452.4; Area under the dose-response curve (AUC) MKL-1 Replicate 2 [5, 20]: 457.3; Area under the dose-response curve (AUC) MKL-1 Replicate 3 [5, 21]: 467.2; Area under the dose-response curve (AUC) MKL-2 Replicate 1 [6, 22]: 491.6; Area under the dose-response curve (AUC) MKL-2 Replicate 2 [6, 23]: 475.6; Area under the dose-response curve (AUC) MKL-2 Replicate 3 [6, 24]: 463.7
O=C(O)CC(C(=O)O)n1c(O)c(C2=c3cc(Br)ccc3=NC2=O)sc1=S (stereo not drawn) [BCL6 Inhibitor]																					Area under the dose-response curve (AUC) [1]: 512.5 and 484.7 and 473.4; Area under the dose-response curve (AUC) [2]: 463.9 and 441.3 and 491.7; Area under the dose-response curve (AUC) [3]: 463.7 and 453.9 and 421.4; Area under the dose-response curve (AUC) [4]: 531.4 and 497.2 and 476.9; Area under the dose-response curve (AUC) [5]: 525.6 and 554.1 and 496.0; Area under the dose-response curve (AUC) [6]: 493.8 and 494.8 and 466.7
O=C1Nc2cc(Br)ccc2/C1=C1/Nc2ccccc2/C1=N\O [BIO]	481.8	449.1	449.8	419.0	405.4	424.1	266.6	275.6	251.6	533.5	491.3	474.9	450.0	447.7	422.6	490.0	435.9	463.9			
CO/C1=C\C(C)=C\[C@@H](C)[C@@H](O)[C@@H](C)C/C(C)=C/C=C/[C@H](OC)[C@@H]([C@@H](C)[C@@H](O)[C@H](C)[C@@]2(O)C[C@@H](O)[C@H](C)[C@@H](C(C)C)O2)OC1=O [Bafilomycin A1]																			343.3	351.4	Area under the dose-response curve (AUC) MCC13 Replicate 3 [1, 9]: 328.2; Area under the dose-response curve (AUC) MCC26 Replicate 1 [2, 10]: 325.4; Area under the dose-response curve (AUC) MCC26 Replicate 2 [2, 11]: 330.5; Area under the dose-response curve (AUC) MCC26 Replicate 3 [2, 12]: 331.3; Area under the dose-response curve (AUC) UISO Replicate 1 [3, 13]: 306.5; Area under the dose-response curve (AUC) UISO Replicate 2 [3, 14]: 264.4; Area under the dose-response curve (AUC) UISO Replicate 3 [3, 15]: 311.8; Area under the dose-response curve (AUC) WAGA Replicate 1 [4, 16]: 341.4; Area under the dose-response curve (AUC) WAGA Replicate 2 [4, 17]: 394.8; Area under the dose-response curve (AUC) WAGA Replicate 3 [4, 18]: 342.5; Area under the dose-response curve (AUC) MKL-1 Replicate 1 [5, 19]: 341.8; Area under the dose-response curve (AUC) MKL-1 Replicate 2 [5, 20]: 384.5; Area under the dose-response curve (AUC) MKL-1 Replicate 3 [5, 21]: 316.5; Area under the dose-response curve (AUC) MKL-2 Replicate 1 [6, 22]: 338.8; Area under the dose-response curve (AUC) MKL-2 Replicate 2 [6, 23]: 333.5; Area under the dose-response curve (AUC) MKL-2 Replicate 3 [6, 24]: 368.3
COc1ccc2cc3[n+](cc2c1OC)CCc1cc2c(cc1-3)OCO2 [Berberine]																			398.2	416.5	Area under the dose-response curve (AUC) MCC13 Replicate 3 [1, 9]: 443.1; Area under the dose-response curve (AUC) MCC26 Replicate 1 [2, 10]: 384.2; Area under the dose-response curve (AUC) MCC26 Replicate 2 [2, 11]: 304.3; Area under the dose-response curve (AUC) MCC26 Replicate 3 [2, 12]: 382.1; Area under the dose-response curve (AUC) UISO Replicate 1 [3, 13]: 307.5; Area under the dose-response curve (AUC) UISO Replicate 2 [3, 14]: 333.0; Area under the dose-response curve (AUC) UISO Replicate 3 [3, 15]: 307.0; Area under the dose-response curve (AUC) WAGA Replicate 1 [4, 16]: 314.6; Area under the dose-response curve (AUC) WAGA Replicate 2 [4, 17]: 371.3; Area under the dose-response curve (AUC) WAGA Replicate 3 [4, 18]: 307.0; Area under the dose-response curve (AUC) MKL-1 Replicate 1 [5, 19]: 311.8; Area under the dose-response curve (AUC) MKL-1 Replicate 2 [5, 20]: 310.8; Area under the dose-response curve (AUC) MKL-1 Replicate 3 [5, 21]: 306.9; Area under the dose-response curve (AUC) MKL-2 Replicate 1 [6, 22]: 282.0; Area under the dose-response curve (AUC) MKL-2 Replicate 2 [6, 23]: 271.5; Area under the dose-response curve (AUC) MKL-2 Replicate 3 [6, 24]: 295.9
C[C@H]1CCC/C=C/[C@@H]2C[C@H](OC(=O)CN(C)C)C[C@H]2[C@H](O)/C=C/C(=O)O1 [Breflate]	301.4	313.0	291.5	324.6	334.5	272.7	287.6	297.1	295.8	298.7	274.6	278.0	284.7	297.0	286.8	314.0	292.1	266.7			
